Data: US20110160265A1, “METHOD OF TREATING MOTOR DISORDERS WITH ALPHA-2B ADRENERGIC RECEPTOR AGONISTS” (priority 2007, published 2011)

Columns and labels:
mice [1] = test: Amphetamine-induced hyperlocomotion (open field); assay type: in vivo; conditions: drug 2 amphetamine SC
Method: Table 2, below, indicates the locomotor responses of mice treated with various combinations of alpha-2B receptor agonists and the psychostimulant amphetamine. Drug 1 was administered 30 minutes after the animal was placed in the open field. Drug 2 was administered subcutaneously (SC) at 45 minutes after the animal was placed in the open field (15 minutes after drug 1). AUC indicates the total amount of locomotor activity after administration of drug 2. “% decrease activity” indicates the percentage decrease in total activity relative to the Vehicle+Amphetamine group. ° indicates significant difference (P<0.05) relative to Vehicle+Amphetamine treated animals. * indicates significant difference (P<0.05) relative to Vehicle+Vehicle treated animals.
(§1) Amphetamine- or cocaine-induced hyperactivity. Mice were placed in an open field apparatus (FlexField, San Diego Instruments, San Diego, Calif.). After 30 minutes of habituation, they received a vehicle or haloperidol injection or injection of alpha-2B receptor agonist followed by an injection of amphetamine (2 mg/kg, s.c.) or cocaine (10 mg/kg, i.p.) at minute 45. Their activity levels were subsequently measured for another 1 hour post-injection. Total activity over each 5 minute bin (21 total bins) was added to establish activity curve over the 105 minute testing.
(§2) For i.p. administration, the compounds are formulated in H2O with 0.5% DMSO and given in a volume of 1 ml/kg body weight by injecting into the intraperitoneal cavity. For p.o. administration, the compounds are formulated in H2O with 0.5% DMSO and given in a volume of 2 ml/kg body weight using a 25-gauge, 1.5 inch gavage needle that is slowly inserted through the esophagus into the stomach.

mice [2] = test: Cocaine-induced hyperlocomotion (open field); assay type: in vivo; conditions: drug 2 cocaine SC; for % DECREASE ACTIVITY: relative to Vehicle+Cocaine
Method: Table 3, below, indicates the locomotor responses of mice treated with various combinations of alpha-2B receptor agonists and the psychostimulant cocaine. Drug 1 was administered 30 minutes after the animal was placed in the open field. Drug 2 was administered subcutaneously (SC) at 45 minutes after the animal was placed in the open field (15 minutes after drug 1). AUC indicates the total amount of locomotor activity after administration of drug 2. “% decrease activity” indicates the percentage decrease in total activity relative to the Vehicle+Cocaine group. ° indicates significant difference (P<0.05) relative to Vehicle+Cocaine treated animals. * indicates significant difference (P<0.05) relative to Vehicle+Vehicle treated animals.
as §1, §2

[3] = system: nigrostriatal-lesioned rats; test: Nigrostriatal-lesion-induced rotational behavior following amphetamine administration; assay type: in vivo; conditions: relative to Vehicle+Amphetamine, drug 1 0.03 mg/kg PO, drug 2 amphetamine SC
Method: Table 4, below, indicates the changes in rotational behavior in nigrostriatal-lesioned rats treated with various alpha-2B receptor agonists and the psychostimulant amphetamine. Drug 1 was administered 15 minutes before amphetamine, and 10 minutes post-amphetamine, the animals were placed into the rotometer for 30 or 60 minutes. “% decrease rotations” indicates the percentage decrease in total rotations relative to the Vehicle+Amphetamine group. ^⋄ indicates significant difference (P<0.05) relative to Vehicle+Amphetamine treated animals. * indicates significant difference (P<0.05) relative to Vehicle+Vehicle treated animals.
Amphetamine-induced rotational behavior. Pre-Apomorphine-screened (rotated) rats (with lesions ≧95% DA cell loss) were purchased from Charles Rivers Laboratories. Animals were given ˜4 days to acclimate prior to testing. All animals weighted 250-300 g at the beginning of the study. Animals were treated with various combinations of vehicle or alpha-2B receptor agonist and amphetamine.
Vehicle or alpha-2B receptor agonist was administered (p.o.) 15 minutes before amphetamine (2 mg/kg s.c.). Rotational behavior was assessed 15 minutes post-amphetamine administration and was monitored for 60 minutes using a Rotometer system from San Diego Instruments (San Diego, Calif.).
as §2

alpha-2A receptor = molecular target: T1, alpha-2A receptor (Homo sapiens, UniProt P08913); test: Alpha-2A receptor activity (efficacy relative to brimonidine); assay type: cell-based; conditions: in words; b7: lacks significant activity = less than 40% of the efficacy of brimonidine at alpha-2A
T1 sequence (P08913 1-465): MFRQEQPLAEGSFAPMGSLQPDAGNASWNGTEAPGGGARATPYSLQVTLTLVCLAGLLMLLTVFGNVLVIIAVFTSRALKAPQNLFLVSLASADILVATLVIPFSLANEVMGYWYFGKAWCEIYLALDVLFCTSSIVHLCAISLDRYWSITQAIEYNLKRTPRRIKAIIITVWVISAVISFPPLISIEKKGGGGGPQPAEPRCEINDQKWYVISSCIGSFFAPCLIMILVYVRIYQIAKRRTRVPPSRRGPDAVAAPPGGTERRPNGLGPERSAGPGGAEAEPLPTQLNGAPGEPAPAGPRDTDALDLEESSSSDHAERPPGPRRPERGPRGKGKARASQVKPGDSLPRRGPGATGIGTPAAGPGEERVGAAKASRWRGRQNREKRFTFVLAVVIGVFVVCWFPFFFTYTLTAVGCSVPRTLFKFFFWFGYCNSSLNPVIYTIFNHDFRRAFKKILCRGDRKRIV
Text: The methods of the present invention use alpha-2 agonists lacking significant activity at the alpha-2A receptor subtype. An agonist lacks significant alpha-2A receptor activity if the agonist has less than 40% of the efficacy of brimonidine at the alpha-2A receptor subtype. Compounds of the invention include, therefore, alpha-2B receptor agonists lacking significant alpha-2A activity; alpha 2B/2C receptor agonists lacking significant alpha-2A activity; and alpha-2C receptor agonists lacking significant alpha-2A activity.
Efficacy, also known as intrinsic activity, is a measure of maximal receptor activation achieved by a compound and can be determined using any accepted assay of alpha-adrenergic receptor activation, such as a cAMP or Receptor Selection and Amplification Technology (RSAT). Efficacy is represented as a ratio or percentage of the maximal effect of the drug to the maximal effect of a standard agonist for each receptor subtype. Brimonidine, itself an alpha-2B receptor agonist (it is has 100% the efficacy of brimonidine at the alpha-2B adrenergic receptor), is used as the standard agonist for the alpha-2B adrenergic receptors.
Agonist activity can be characterized using any of a variety of routine assays, including, for example, Receptor Selection and Amplification Technology (RSAT) assays (Messier et al., Pharmacol. Toxicol. 76:308-11 (1995); cyclic AMP assays (Shimizu et al., J. Neurochem. 16:1609-1619 (1969)); and cytosensor microphysiometry assays (Neve et al., J. Biol. Chem. 267:25748-25753 (1992)). Such assays generally are performed using cells that naturally express only a single alpha-adrenergic receptor subtype, or using transfected cells expressing a single recombinant alpha-adrenergic receptor subtype. The adrenergic receptor can be a human receptor or homolog of a human receptor having a similar pharmacology.
The RSAT assay measures receptor-mediated loss of contact inhibition resulting in selective proliferation of receptor-containing cells in a mixed population of confluent cells. The increase in cell number is assessed with an appropriate detectable marker gene such as beta-galactosidase, if desired, in a high throughput or ultra high throughput assay format. Receptors that activate the G protein, Gq, elicit the proliferative response. Alpha-adrenergic receptors, which normally couple to Gi, activate the RSAT response when coexpressed with a hybrid Gq protein containing a Gi receptor recognition domain, designated Gq/i5. Conklin et al., Nature 363:274-6 (1993)).
As an example, an RSAT assay can be performed essentially as follows. NIH-3T3 cells are plated at a density of 2×10^6 cells in 15 cm dishes and maintained in Dulbecco's modified Eagle's medium supplemented with 10% calf serum. One day later, cells are cotransfected by calcium phosphate precipitation with mammalian expression plasmids encoding p-SV-β-galactosidase (5-10 μg), receptor (1-2 μg) and G protein (1-2 μg). Carrier DNA, for example 40 μg salmon sperm DNA, also can be included to increase transfection efficiency. Fresh media is added on the following day; one to two days later, cells are harvested and frozen in 50 assay aliquots. Transfected cells are thawed, and 100 μl of cells added to 100 μl aliquots of compound to be tested, with various concentrations assayed in triplicate, for example, in 96-well plates. Incubation continues for 72 to 96 hours at 37° C. After washing with phosphate-buffered saline, β-galactosidase activity is determined by adding 200 μl of chromogenic substrate (3.5 mM O-nitrophenyl-β-D-galactopyranoside/0.5% NP-40 in phosphate buffered saline), incubating overnight at 30° C., and measuring optical density at 420 nm. The absorbancy is a measure of enzyme activity, which depends on cell number and reflects receptor-mediated cell proliferation. The EC50 and maximal effect (i.e., efficacy) of each drug at each receptor is determined.

Structure (SMILES)	% DECREASE ACTIVITY REL TO VEH + AMPH (mice [1]; drug 1 0.03 mg/kg IP)	TOTAL ACTIVITY POST-AMPHETAMINE (AUC) (mice [1]; drug 1 0.03 mg/kg IP)	TOTAL ACTIVITY POST-COCAINE (AUC) (mice [2]; drug 1 0.03 mg/kg PO)	TOTAL ACTIVITY POST-COCAINE (AUC) (mice [2]; drug 1 0.1 mg/kg PO)	TOTAL ACTIVITY POST-COCAINE (AUC) (mice [2]; drug 1 0.3 mg/kg PO)	% DECREASE ACTIVITY (mice [2]; drug 1 0.03 mg/kg PO)	% DECREASE ACTIVITY (mice [2]; drug 1 0.1 mg/kg PO)	% DECREASE ACTIVITY (mice [2]; drug 1 0.3 mg/kg PO)	% DECREASE ROTATIONS [3]	alpha-2A receptor activity (alpha-2A receptor)	% DECREASE ACTIVITY REL TO VEH + AMPH (mice [1]; drug 1 1 mg/kg IP)	TOTAL ACTIVITY POST-AMPHETAMINE (AUC) (mice [1]; drug 1 1 mg/kg IP)
OCCNC(=S)NCc1cccc(Cl)c1F [Compound A]	55% ^⋄	5524.8 ± 624.2	8469 ± 935.01	6457.67 ± 754.0	3543 ± 648.02	19% * ^	38% ^⋄ *	66% ^⋄	65% ^⋄ *	lack significant alpha-2A receptor activity		
c1ccc2c(c1)CC[C@@H](Cc1c[nH]cn1)C2 [Compound B]	68% ^⋄	3940.5 ± 573.7							29% * ^	lack significant alpha-2A receptor activity	64% ^⋄	4462.0 ± 957.5
Clc1cccc(C(c2ccccc2)c2c[nH]cn2)c1Cl (stereo not shown) [Compound C]	52% ^⋄	6348.0 ± 423.4								lack significant alpha-2A receptor activity		
